Active and inactive are the calls of the source. The rule behind the calls is not given here.
Assays:
[1] = system: RPTEC; assay: Antiinflammatory activity against LPS-induced human RPTEC cells assessed as reduction in iNOS gene expression at 26 uM incubated for 24 hrs by qPCR analysis relative to control; format: functional; set-up: scale not given: the % may be the effect or the level left
[2] = system: RPTEC; assay: Cytotoxicity against human RPTEC cells assessed as reduction in cell viability at 26 uM incubated for 24 hrs in absence of LPS by MTT assay; format: toxicity, cell-based
[3] = system: RPTEC; assay: Upregulation of COX-2 gene expression in human RPTEC cells at 26 uM incubated for 24 hrs by qPCR analysis; format: functional, cell-based
[4] = system: RPTEC; assay: Antiinflammatory activity against LPS-induced human RPTEC cells assessed as reduction in total NO level at 26 uM incubated for 24 hrs by microplate reader analysis relative to control; format: functional; set-up: scale not given: the % may be the effect or the level left
[5] = system: RPTEC; assay: Antiinflammatory activity against LPS-induced human RPTEC cells assessed as reduction in COX-2 gene expression at 26 uM incubated for 24 hrs by qPCR analysis relative to control; format: functional; set-up: scale not given: the % may be the effect or the level left
[6] = system: RPTEC; assay: Upregulation of IL-1beta gene expression in human RPTEC cells at 26 uM incubated for 24 hrs by qPCR analysis; format: functional, cell-based
[7] = system: RPTEC; assay: Effect on nitrate level in human RPTEC cells at 26 uM incubated for 24 hrs by microplate reader analysis; format: functional, cell-based
[8] = system: RPTEC; assay: Effect on nitrate level in LPS-induced human RPTEC cells at 26 uM incubated for 24 hrs by microplate reader analysis; format: functional, cell-based
[9] = system: RPTEC; assay: Effect on iNOS gene expression in human RPTEC cells at 26 uM incubated for 24 hrs by qPCR analysis; format: functional, cell-based
[10] = system: RPTEC; assay: Antiinflammatory activity in LPS-induced human RPTEC cells assessed as decrease in IL6 gene expression at 26 uM incubated for 24 hrs by qPCR analysis relative to control; format: functional; set-up: scale not given: the % may be the effect or the level left
[11] = system: RPTEC; assay: Cytotoxicity against human RPTEC cells assessed as reduction in cell viability at 26 uM incubated for 24 hrs in presence of LPS by MTT assay; format: toxicity, cell-based
[12] = system: RPTEC; assay: Effect on nitrite level in human RPTEC cells at 26 uM incubated for 24 hrs by microplate reader analysis; format: functional, cell-based
[13] = system: RPTEC; assay: Effect on total NO level in human RPTEC cells at 26 uM incubated for 24 hrs by microplate reader analysis; format: functional, cell-based
[14] = system: RPTEC; assay: Upregulation of IL-6 gene expression in human RPTEC cells at 26 uM incubated for 24 hrs by qPCR analysis; format: functional, cell-based
[15] = system: RPTEC; assay: Antiinflammatory activity against LPS-induced human RPTEC cells assessed as reduction in nitrite level at 26 uM incubated for 24 hrs by microplate reader analysis relative to control; format: functional; set-up: scale not given: the % may be the effect or the level left
[16] = system: RPTEC; assay: Antiinflammatory activity in LPS-induced human RPTEC cells assessed as downregulation of TNFalpha gene expression at 26 uM incubated for 24 hrs by qPCR analysis relative to control; format: functional
[17] = system: RPTEC; assay: Antiinflammatory activity in LPS-induced human RPTEC cells assessed as decrease in IL-1beta gene expression at 26 uM incubated for 24 hrs by qPCR analysis relative to control; format: functional; set-up: scale not given: the % may be the effect or the level left
[18] = system: RPTEC; assay: Effect on IL-6 gene expression in human RPTEC cells at 26 uM incubated for 24 hrs by qPCR analysis; format: functional, cell-based
[19] = system: RPTEC; assay: Effect on IL-1beta gene expression in human RPTEC cells at 26 uM incubated for 24 hrs by qPCR analysis; format: functional, cell-based
[20] = system: RPTEC; assay: Effect on COX-2 gene expression in human RPTEC cells at 26 uM incubated for 24 hrs by qPCR analysis; format: functional, cell-based
[21] = system: RAW264.7; assay: Inhibition of NO production in LPS-induced mouse RAW264.7 cells incubated for 24 hrs by absorbance based assay; format: functional, cell-based; details: RAW264.7, 24 h
[22] = system: RPTEC; assay: Effect on COX-2 gene expression in human RPTEC cells at 28 uM incubated for 24 hrs by qPCR analysis; format: functional, cell-based
[23] = system: RPTEC; assay: Antiinflammatory activity in LPS-induced human RPTEC cells assessed as decrease in IL-1beta gene expression at 28 uM incubated for 24 hrs by qPCR analysis relative to control; format: functional; set-up: scale not given: the % may be the effect or the level left
[24] = system: RPTEC; assay: Antiinflammatory activity against LPS-induced human RPTEC cells assessed as reduction in COX-2 gene expression at 28 uM incubated for 24 hrs by qPCR analysis relative to control; format: functional; set-up: scale not given: the % may be the effect or the level left
[25] = system: RPTEC; assay: Effect on nitrate level in LPS-induced human RPTEC cells at 28 uM incubated for 24 hrs by microplate reader analysis; format: functional, cell-based
[26] = system: RPTEC; assay: Antiinflammatory activity in LPS-induced human RPTEC cells assessed as downregulation of TNFalpha gene expression at 28 uM incubated for 24 hrs by qPCR analysis relative to control; format: functional
[27] = system: RPTEC; assay: Antiinflammatory activity against LPS-induced human RPTEC cells assessed as reduction in iNOS gene expression at 28 uM incubated for 24 hrs by qPCR analysis relative to control; format: functional; set-up: scale not given: the % may be the effect or the level left
[28] = system: RPTEC; assay: Antiinflammatory activity against LPS-induced human RPTEC cells assessed as reduction in nitrite level at 28 uM incubated for 24 hrs by microplate reader analysis relative to control; format: functional; set-up: scale not given: the % may be the effect or the level left
[29] = Downregulation of TNF-alpha gene expression in human RPTEC cells at 28 uM incubated for 24 hrs by qPCR analysis relative to control; format: functional
[30] = system: RPTEC; assay: Antiinflammatory activity in LPS-induced human RPTEC cells assessed as decrease in IL6 gene expression at 28 uM incubated for 24 hrs by qPCR analysis relative to control; format: functional; set-up: scale not given: the % may be the effect or the level left
[31] = Downregulation of COX-2 gene expression in human RPTEC cells at 26 uM incubated for 24 hrs by qPCR analysis relative to control; format: functional
[32] = Downregulation of TNF-alpha gene expression in human RPTEC cells at 26 uM incubated for 24 hrs by qPCR analysis relative to control; format: functional
[33] = Downregulation of IL-1beta gene expression in human RPTEC cells at 26 uM incubated for 24 hrs by qPCR analysis relative to control; format: functional

SMILES	Activity [1] [%]	Activity [2]	Activity [4] [%]	Activity [5] [%]	Activity [7]	Activity [8]	Activity [9]	Activity [10] [%]	Activity [11]	Activity [12]	Activity [13]	Activity [15] [%]	Activity [16] [%]	Activity [17] [%]	Activity [18]	Activity [19]	Activity [20]	IC50 [21] [µM]	further results
CC1(C)Oc2ccc(CC3=C(c4ccc(O)cc4)C(=O)NC3=O)cc2CC1O (racemic)	57	Non-Toxic	~37	53	inactive	inactive	inactive	44	Non-Toxic	inactive	inactive	45	44	52	–	–	–	–	Activity [3]: Active; Activity [6]: Active; Activity [14]: Active
CC1(C)Oc2ccc(CC3=C(c4ccc(O)cc4)C(=O)NC3=O)cc2C[C@@H]1O	52	Non-Toxic	~18	52	inactive	inactive	inactive	39	Non-Toxic	inactive	inactive	24	58	52	inactive	inactive	inactive	0.78	–
COc1ccc2c(c1)c(CC(=O)O)c(C)n2C(=O)c1ccc(Cl)cc1 [INDOMETHACIN]	–	–	–	–	–	–	–	–	–	–	–	–	–	–	–	–	–	37.5	Activity [22]: inactive; Activity [23]: 56%; Activity [24]: 61%; Activity [25]: inactive; Activity [26]: 64%; Activity [27]: 59%; Activity [28]: 45%; Activity [29]: ~38%; Activity [30]: 57%
CC1(C)Oc2ccc(CC3=C(c4ccc(O)cc4)C(=O)OC3=O)cc2CC1O (stereo not given)	67	Non-Toxic	~35	61	inactive	inactive	inactive	55	Non-Toxic	inactive	inactive	45	67	61	inactive	–	–	–	Activity [31]: ~20%; Activity [32]: ~38%; Activity [33]: 24%
CC1(C)Oc2ccc(CC3=C(c4ccc(O)cc4)C(=O)OC3=O)cc2C[C@@H]1O	47	Non-Toxic	~33	49	inactive	inactive	inactive	48	Non-Toxic	inactive	inactive	45	57	52	inactive	inactive	inactive	–	–
